Source: PubChem BioAssay AID1259407 (Chemical Carcinogenesis Research Information System (CCRIS), 2018)
Calls of active or inactive are those of the source. The rule behind the calls is not given here.

Test system: CCRIS mutagenicity, Ames/micronucleus/aberration tests
Test: CCRIS mutagenicity studies
[1] = Test System: AMES SALMONELLA TYPHIMURIUM, Strain/Indicator: TA97, Metabolic Activation: NONE, Method: PREINCUBATION
[2] = Test System: AMES SALMONELLA TYPHIMURIUM, Strain/Indicator: TA98, Metabolic Activation: HAMSTER, LIVER, S-9, AROCLOR 1254 (30%), Method: PREINCUBATION
[3] = Test System: AMES SALMONELLA TYPHIMURIUM, Strain/Indicator: TA98, Metabolic Activation: NONE, Method: PREINCUBATION
[4] = Test System: AMES SALMONELLA TYPHIMURIUM, Strain/Indicator: TA100, Metabolic Activation: NONE, Method: PREINCUBATION
[5] = Test System: AMES SALMONELLA TYPHIMURIUM, Strain/Indicator: TA100, Metabolic Activation: RAT, LIVER, S-9, AROCLOR 1254 (30%), Method: PREINCUBATION
[6] = Test System: AMES SALMONELLA TYPHIMURIUM, Strain/Indicator: TA1535, Metabolic Activation: HAMSTER, LIVER, S-9, AROCLOR 1254 (30%), Method: PREINCUBATION
[7] = Test System: AMES SALMONELLA TYPHIMURIUM, Strain/Indicator: TA1535, Metabolic Activation: NONE, Method: PREINCUBATION
[8] = Test System: AMES SALMONELLA TYPHIMURIUM, Strain/Indicator: TA100, Metabolic Activation: NONE, Method: STANDARD PLATE
[9] = Test System: AMES SALMONELLA TYPHIMURIUM, Strain/Indicator: TA98, Metabolic Activation: NONE, Method: STANDARD PLATE

SMILES: NOS(=O)(=O)O
- mutagenic call (Test System: AMES SALMONELLA TYPHIMURIUM, Strain/Indicator: G46, Metabolic Activation: RAT, LIVER, S-9, AROCLOR 1254, Method: STANDARD PLATE): active; positive
- mutagenic call (Test System: AMES SALMONELLA TYPHIMURIUM, Strain/Indicator: TA100, Metabolic Activation: RAT, LIVER, S-9, AROCLOR 1254, Method: STANDARD PLATE): inactive; negative

SMILES: CCCCC(C=O)CC (stereo not given)
- mutagenic call (Test System: AMES SALMONELLA TYPHIMURIUM, Strain/Indicator: TA97, Metabolic Activation: HAMSTER, LIVER, S-9, AROCLOR 1254 (10%), Method: PREINCUBATION): inactive; negative
- mutagenic call (Test System: AMES SALMONELLA TYPHIMURIUM, Strain/Indicator: TA97, Metabolic Activation: HAMSTER, LIVER, S-9, AROCLOR 1254 (30%), Method: PREINCUBATION): inactive; negative
- mutagenic call [1]: inactive; negative
- mutagenic call (Test System: AMES SALMONELLA TYPHIMURIUM, Strain/Indicator: TA97, Metabolic Activation: RAT, LIVER, S-9, AROCLOR 1254 (10%), Method: PREINCUBATION): inactive; negative
- mutagenic call (Test System: AMES SALMONELLA TYPHIMURIUM, Strain/Indicator: TA97, Metabolic Activation: RAT, LIVER, S-9, AROCLOR 1254 (30%), Method: PREINCUBATION): inactive; negative
- mutagenic call (Test System: AMES SALMONELLA TYPHIMURIUM, Strain/Indicator: TA98, Metabolic Activation: HAMSTER, LIVER, S-9, AROCLOR 1254 (10%), Method: PREINCUBATION): inactive; negative
- mutagenic call [2]: inactive; negative
- mutagenic call [3]: inactive; negative
- mutagenic call (Test System: AMES SALMONELLA TYPHIMURIUM, Strain/Indicator: TA98, Metabolic Activation: RAT, LIVER, S-9, AROCLOR 1254 (10%), Method: PREINCUBATION): inactive; negative
- mutagenic call (Test System: AMES SALMONELLA TYPHIMURIUM, Strain/Indicator: TA98, Metabolic Activation: RAT, LIVER, S-9, AROCLOR 1254 (30%), Method: PREINCUBATION): inactive; negative
- mutagenic call (Test System: AMES SALMONELLA TYPHIMURIUM, Strain/Indicator: TA100, Metabolic Activation: HAMSTER, LIVER, S-9, AROCLOR 1254 (10%), Method: PREINCUBATION): inactive; negative
- mutagenic call (Test System: AMES SALMONELLA TYPHIMURIUM, Strain/Indicator: TA100, Metabolic Activation: HAMSTER, LIVER, S-9, AROCLOR 1254 (30%), Method: PREINCUBATION): inactive; negative
- mutagenic call [4]: inactive; negative
- mutagenic call (Test System: AMES SALMONELLA TYPHIMURIUM, Strain/Indicator: TA100, Metabolic Activation: RAT, LIVER, S-9, AROCLOR 1254 (10%), Method: PREINCUBATION): inactive; negative
- mutagenic call [5]: inactive; negative
- mutagenic call (Test System: AMES SALMONELLA TYPHIMURIUM, Strain/Indicator: TA1535, Metabolic Activation: HAMSTER, LIVER, S-9, AROCLOR 1254 (10%), Method: PREINCUBATION): inactive; negative
- mutagenic call [6]: inactive; negative
- mutagenic call [7]: inactive; negative
- mutagenic call (Test System: AMES SALMONELLA TYPHIMURIUM, Strain/Indicator: TA1535, Metabolic Activation: RAT, LIVER, S-9, AROCLOR 1254 (10%), Method: PREINCUBATION): inactive; negative
- mutagenic call (Test System: AMES SALMONELLA TYPHIMURIUM, Strain/Indicator: TA1535, Metabolic Activation: RAT, LIVER, S-9, AROCLOR 1254 (30%), Method: PREINCUBATION): inactive; negative

SMILES: CCc1cc2ccccc2c2ccc3c(c12)[C@@H]1O[C@@H]1[C@H](O)[C@H]3O
- mutagenic call [4]: active; positive

SMILES: O[C@@H]1[C@@H]2O[C@@H]2C=C[C@H]1O
- mutagenic call [1]: inactive; negative
- mutagenic call [3]: inactive; negative
- mutagenic call [7]: active; positive

SMILES: C=CCNC(N)=O
- mutagenic call [2]: inactive; negative
- mutagenic call [3]: inactive; negative
- mutagenic call (Test System: AMES SALMONELLA TYPHIMURIUM, Strain/Indicator: TA100, Metabolic Activation: HAMSTER, LIVER, S-9, AROCLOR 1254 (5, 10 OR 30%), Method: PREINCUBATION): inactive; negative
- mutagenic call [4]: inactive; negative
- mutagenic call [5]: inactive; negative
- mutagenic call (Test System: AMES SALMONELLA TYPHIMURIUM, Strain/Indicator: TA1535, Metabolic Activation: HAMSTER, LIVER, S-9, AROCLOR 1254 (5 OR 10%), Method: PREINCUBATION): inactive; negative
- mutagenic call [6]: active; positive

SMILES: CC(NCc1ccccc1)C(=O)NCc1ccccc1 (stereo not given)
- mutagenic call [8]: inactive; negative

SMILES: O=[N+]([O-])C1=Cc2cccc3cccc(c23)O1
- mutagenic call [9]: inactive; negative
- mutagenic call (Test System: AMES SALMONELLA TYPHIMURIUM, Strain/Indicator: TA98, Metabolic Activation: S-9, Method: STANDARD PLATE): inactive; negative
- mutagenic call [8]: active; positive
- mutagenic call (Test System: AMES SALMONELLA TYPHIMURIUM, Strain/Indicator: TA100, Metabolic Activation: S-9, Method: STANDARD PLATE): inactive; negative

SMILES: O=Cc1ccc(COS(=O)(=O)O)o1
- mutagenic call [9]: inactive; negative
- mutagenic call [8]: active; positive
- mutagenic call (Test System: AMES SALMONELLA TYPHIMURIUM, Strain/Indicator: TA104, Metabolic Activation: NONE, Method: PREINCUBATION): active; positive

SMILES: CCCN(CC(C)=O)N=O
- mutagenic call (Test System: CHINESE HAMSTER V-79, Strain/Indicator: V-79/OUABAIN, Metabolic Activation: HAMSTER, HEPATOCYTES, Method: CELL-MEDIATED): active; positive

SMILES: OCC(Cl)(Cl)Cl
- mutagenic call (Test System: AMES SALMONELLA TYPHIMURIUM, Strain/Indicator: TA100, Metabolic Activation: NONE, Method: BAG VAPORIZATION): inactive; negative
- mutagenic call (Test System: AMES SALMONELLA TYPHIMURIUM, Strain/Indicator: TA100, Metabolic Activation: RAT, LIVER, S-9, AROCLOR 1254, Method: BAG VAPORIZATION): inactive; negative

SMILES: N[C@@H](CS/C=C/Cl)C(=O)O
- mutagenic call [4]: inactive; negative
- mutagenic call (Test System: AMES SALMONELLA TYPHIMURIUM, Strain/Indicator: TA2638, Metabolic Activation: NONE, Method: PREINCUBATION): active; positive

SMILES: Cc1ccc(N)cc1N=[N+]([O-])c1cc(N)ccc1C
- mutagenic call (Test System: AMES SALMONELLA TYPHIMURIUM, Strain/Indicator: TA98, Metabolic Activation: NONE, Method: SUSPENSION/PLATE): inactive; negative
- mutagenic call (Test System: AMES SALMONELLA TYPHIMURIUM, Strain/Indicator: TA98, Metabolic Activation: RAT, LIVER, S-9, PHENOBARBITAL AND 5,6-BENZOFLAVONE, Method: SUSPENSION/PLATE): inactive; negative
- mutagenic call (Test System: AMES SALMONELLA TYPHIMURIUM, Strain/Indicator: TA100, Metabolic Activation: NONE, Method: SUSPENSION/PLATE): inactive; negative
- mutagenic call (Test System: AMES SALMONELLA TYPHIMURIUM, Strain/Indicator: TA100, Metabolic Activation: RAT, LIVER, S-9, PHENOBARBITAL AND 5,6-BENZOFLAVONE, Method: SUSPENSION/PLATE): active; positive

SMILES: O=[N+]([O-])c1ccc(-c2nc3sccn3c2[N+](=O)[O-])cc1
- mutagenic call [9]: active; positive
- mutagenic call [8]: active; positive
- mutagenic call (Test System: AMES SALMONELLA TYPHIMURIUM, Strain/Indicator: TA1535, Metabolic Activation: NONE, Method: STANDARD PLATE): inactive; negative
- mutagenic call (Test System: AMES SALMONELLA TYPHIMURIUM, Strain/Indicator: TA1537, Metabolic Activation: NONE, Method: STANDARD PLATE): active; positive
- mutagenic call (Test System: AMES SALMONELLA TYPHIMURIUM, Strain/Indicator: TA1538, Metabolic Activation: NONE, Method: STANDARD PLATE): active; positive
